Measured values from PMC9304199, “A small molecule CFTR potentiator restores ATP‐dependent channel gating to the cystic fibrosis mutant G551D‐CFTR” (British Journal of Pharmacology, 2022).
Where two headings read alike, the source gives them in different places.

Tests used:
F508del‐CFTR [1] = target: T1, F508del‐CFTR (Homo sapiens, UniProt P13569, DEL508-508); experiment: F508del‐CFTR plasma membrane stability in FRT epithelia (Ussing chamber Isc after cycloheximide); type: cell-based; set-up: expressed in transfected cells; BHK cells from MD Amaral; details: for acute potentiation of forskolin-stimulated CFTR-mediated Isc: DMSO-treated low temperature-rescued F508del‐CFTR FRT epithelia, t = 0 h, forskolin 10 μM, ivacaftor 1 μM, then CP‐628006 10 μM
Procedure: To evaluate the effects of CP‐628006 on the plasma membrane stability of F508del‐CFTR, we used a modification of the method described by Meng et al. ([2017]). After 48‐h incubation at 27°C to rescue the plasma membrane expression of F508del‐CFTR, FRT epithelia were treated with cycloheximide (50 μg·ml^−1) and DMSO or test small molecules, 15 min prior to t = 0 h. At t = 0, 2, 4, and 6 h after these treatments, F508del‐CFTR expressing FRT epithelia were mounted in Ussing chambers (Warner Instrument Corp., Dual Channel Chamber; Harvard Apparatus Ltd., Edenbridge, UK) and Isc responses recorded.
CFTR‐mediated Isc was recorded using a large Cl^− concentration gradient without permeabilizing the basolateral membrane. The solution bathing the basolateral membrane contained (mM): 140 NaCl, 5 KCl, 0.36 K2HPO4, 0.44 KH2PO4, 1.3 CaCl2, 0.5 MgCl2, 10 HEPES, and 4.2 NaHCO3, adjusted to pH 7.2 with Tris ([Cl^−], 149 mM). The solution bathing the apical membrane was identical to that of the basolateral solution with the exception that (mM): 133.3 Na gluconate + 2.5 NaCl and 5 K gluconate replaced 140 NaCl and 5 KCl, respectively, ([Cl^−], 14.8 mM). To compensate for the calcium buffering capacity of gluconate, we used 5.7‐mM Ca^2+ in the apical solution. All solutions were maintained at 37°C and bubbled continuously with 5% CO2.
After cancelling voltage offsets, we clamped transepithelial voltage (referenced to the basolateral solution) at 0 mV and recorded Isc continuously using an epithelial voltage‐clamp amplifier (Warner Instrument Corp., model EC‐825; Harvard Apparatus Ltd.), digitising data as described previously (Li et al., [2004]). The resistance of the filter and solutions, in the absence of cells, was subtracted from all measurements.

F508del‐CFTR [2] = target: T1, F508del‐CFTR; experiment: Single-channel recording in excised inside-out membrane patches, F508del‐CFTR; type: biochemical; set-up: expressed in transfected cells; BHK cells from MD Amaral; details: for reduction of interburst interval (IBI): single active channel; for Emax: read-out: Maximal effect (%) (95% CI)
Procedure: For CFTR studies using automated electrophysiology and single-channel recording, we used baby hamster kidney (BHK) cells (RRID:CVCL_1915) and human embryonic kidney (HEK) 293 cells (RRID:CVCL_0045) stably expressing wild-type human CFTR and the CFTR variants F508del- and […] et al., [2002]; Xu et al., [2014]). […] HEK cells expressing CFTR variants were generated using the Flp-InTM system as described above for F508del- and G551D-CFTR-expressing FRT cells. They were cultured in Dulbecco's modified Eagle's medium (glucose, 1.5 g·L^-1; sodium pyruvate, 110 mg·L^-1) supplemented with 10% FBS (PAA Laboratories), GlutaMAXTM and hygromycin-B (150 μg·ml^-1; InvitrogenTM, Thermo Fisher Scientific) at 37°C in a humidified atmosphere with 5% CO2. Prior to study, F508del-CFTR expressed in HEK cells was trafficked to the plasma membrane by low temperature incubation (27°C for 24-72 h). […] CFTR Cl^- channels were recorded in excised inside-out membrane patches using an Axopatch 200B patch-clamp amplifier and pCLAMP software (version 10.3) (RRID:SCR_011323) (both from Molecular Devices, San Jose, CA, USA) (Sheppard & Robinson, [1997]). […] Within 2 min after membrane patch excision, we added the catalytic subunit of protein kinase A (PKA; 75 nM) and ATP (1 mM) to the intracellular solution to activate CFTR Cl^- channels. To minimise channel rundown, we added PKA and millimolar concentrations of ATP to all intracellular solutions and clamped voltage at -50 mV. […] We reduced the ATP concentration when testing CFTR potentiators on wild-type CFTR to observe their effects more clearly. […] Instead, specific interventions with CFTR potentiators were compared with the pre-intervention control period made with the same concentration of ATP and PKA, but without test compounds. […] To determine channel number, we used the maximum number of simultaneous channel openings observed during an experiment (Cai et al., [2006]). To minimise errors, we used experimental conditions that robustly potentiate channel activity and verified that recordings were of sufficient length to ascertain the correct number of channels ([…] et al., [1994]). […] Therefore, Po values for G551D-CFTR are expressed as apparent Po (Po(app)) values. Single-channel currents were directly acquired to a computer hard disc after filtering at a corner frequency (f c) of 500 Hz with an eight-pole Bessel filter (model LHBF-48×; npi electronic GmbH, Tamm, Germany) and digitising at a sampling rate of 5 kHz using a Digidata 1440A interface (Molecular Devices) and pCLAMP software. To measure single-channel current amplitude (i), Gaussian distributions were fit to current amplitude histograms. For Po and burst analyses, lists of open- and closed-times were created using a half-amplitude crossing criterion for event detection and dwell-time histograms constructed as previously described (Sheppard & Robinson, [1997]); transitions < 1 ms were excluded from the analysis (eight-pole Bessel filter rise time [T 10-90] ~ 0.73 ms at f c = 500 Hz). Histograms were fitted with one or more component exponential functions using the maximum likelihood method. […] The mean interburst interval (TIBI) was calculated using the equation (Cai et al., [2006]): (1) Po=Tb/TMBD+TIBI, where T b = (mean burst duration) × (open probability within a burst). Mean burst duration (T MBD) and open probability within a burst (Po[burst]) were determined directly from experimental data using pCLAMP software.

[3] = F508del‐CFTR Cl− channels, excised inside-out patches, 23°C, data normalised to ivacaftor 1 μM, read-out: EC50 (μM) (95% CI)
[4] = low temperature-rescued F508del‐CFTR, ATP 1 mM, PKA 75 nM, ~23°C
[5] = low temperature-rescued F508del‐CFTR, ATP 1 mM, PKA 75 nM, ~23°C, read-out: EC50 for potentiation of Po
[6] = low temperature-rescued F508del‐CFTR, compound 10 μM, ATP 1 mM
[7] = low temperature-rescued F508del‐CFTR, compound 1 μM, ATP 1 mM

T1 sequence (P13569 with tags, fused parts or gaps DEL508-508): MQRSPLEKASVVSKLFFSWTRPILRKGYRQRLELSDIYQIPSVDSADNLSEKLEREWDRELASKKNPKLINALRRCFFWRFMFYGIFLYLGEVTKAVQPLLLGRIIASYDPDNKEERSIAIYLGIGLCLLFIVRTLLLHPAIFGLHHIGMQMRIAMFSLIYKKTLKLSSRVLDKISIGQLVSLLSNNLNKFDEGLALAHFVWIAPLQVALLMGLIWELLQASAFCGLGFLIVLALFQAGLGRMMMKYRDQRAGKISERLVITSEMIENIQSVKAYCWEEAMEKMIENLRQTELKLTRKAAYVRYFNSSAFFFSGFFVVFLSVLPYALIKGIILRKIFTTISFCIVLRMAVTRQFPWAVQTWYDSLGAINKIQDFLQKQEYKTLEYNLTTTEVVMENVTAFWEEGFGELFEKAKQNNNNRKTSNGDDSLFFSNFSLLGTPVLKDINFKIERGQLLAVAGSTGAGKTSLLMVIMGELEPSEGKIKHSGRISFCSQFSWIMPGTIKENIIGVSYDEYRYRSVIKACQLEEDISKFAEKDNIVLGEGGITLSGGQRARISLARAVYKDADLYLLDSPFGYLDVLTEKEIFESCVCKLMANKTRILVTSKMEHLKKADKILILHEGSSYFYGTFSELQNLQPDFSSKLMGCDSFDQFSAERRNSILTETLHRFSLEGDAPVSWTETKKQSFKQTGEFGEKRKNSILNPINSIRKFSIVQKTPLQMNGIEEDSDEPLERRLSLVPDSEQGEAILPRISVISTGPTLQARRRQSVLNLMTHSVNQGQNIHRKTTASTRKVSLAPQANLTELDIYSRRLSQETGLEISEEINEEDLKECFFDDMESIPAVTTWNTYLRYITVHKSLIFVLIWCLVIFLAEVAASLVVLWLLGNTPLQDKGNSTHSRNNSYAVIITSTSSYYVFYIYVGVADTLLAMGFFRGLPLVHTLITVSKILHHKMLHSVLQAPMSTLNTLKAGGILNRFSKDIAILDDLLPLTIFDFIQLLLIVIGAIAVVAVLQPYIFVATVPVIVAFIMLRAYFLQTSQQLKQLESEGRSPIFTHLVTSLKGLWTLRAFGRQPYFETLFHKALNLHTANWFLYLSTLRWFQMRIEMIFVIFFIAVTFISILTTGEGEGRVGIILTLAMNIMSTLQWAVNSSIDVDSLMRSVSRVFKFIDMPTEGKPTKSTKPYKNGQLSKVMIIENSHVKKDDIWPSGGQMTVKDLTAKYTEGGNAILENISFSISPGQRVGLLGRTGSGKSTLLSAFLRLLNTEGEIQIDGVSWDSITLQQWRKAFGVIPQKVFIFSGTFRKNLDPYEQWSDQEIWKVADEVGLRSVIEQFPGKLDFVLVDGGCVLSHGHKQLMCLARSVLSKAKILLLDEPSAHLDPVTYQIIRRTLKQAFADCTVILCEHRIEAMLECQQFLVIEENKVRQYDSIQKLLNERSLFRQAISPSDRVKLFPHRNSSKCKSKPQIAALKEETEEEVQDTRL

SMILES: Cc1ncccc1CNC(=O)c1ccc2c(c1)CC[C@H]1C[C@](O)(CCC(F)(F)F)CC[C@]21Cc1ccccc1 (racemic) [CP‐628006, rac‐(4bR,7R,8aS)‐4b‐benzyl‐7‐hydroxy‐N‐((2‐methylpyridin‐3‐yl)methyl)‐7‐(3,3,3‐trifluoropropyl)‐4b,5,6,7,8,8a,9,10‐octahydrophenanthrene‐2‐carboxamide]
- acute potentiation of forskolin-stimulated CFTR-mediated Isc (F508del‐CFTR [1]): had little additional effect
- decline of CFTR-mediated Isc over 6 h (F508del‐CFTR [1]; low temperature-rescued F508del‐CFTR FRT epithelia treated with cycloheximide 50 μg·ml−1 and compound 10 μM, 37°C): slower
- EC50 (F508del‐CFTR [2]; [3]): 0.5 µM
- Po max (F508del‐CFTR [2]; [4]): 0.62
- EC50 (F508del‐CFTR [2]; [5]): 0.4 µM
- Po max of ATP-dependence in presence of compound (F508del‐CFTR [2]; low temperature-rescued F508del‐CFTR, compound 300 nM, ATP 0.1–3 mM): 0.33
- enhancement of Po (F508del‐CFTR [2]; [6]): 13 ± 5 fold
- reduction of interburst interval (IBI) (F508del‐CFTR [2]; [6]): 15 fold
- Emax (F508del‐CFTR [2]): 144%

SMILES: CC(C)(C)c1cc(C(C)(C)C)c(NC(=O)c2c[nH]c3ccccc3c2=O)cc1O [ivacaftor, reference compound]
- acute potentiation of forskolin-stimulated CFTR-mediated Isc (F508del‐CFTR [1]): potentiated two‐fold
- EC50 (F508del‐CFTR [2]; [3]): 0.008 µM
- Po max (F508del‐CFTR [2]; [4]): 0.51
- EC50 (F508del‐CFTR [2]; [5]): 0.01 µM
- enhancement of Po (F508del‐CFTR [2]; [7]): 9 ± 5 fold
- reduction of interburst interval (IBI) (F508del‐CFTR [2]; [7]): 15 fold
- Emax (F508del‐CFTR [2]): 103%
